Test results reported in ChEMBL document CHEMBL4483862, “Open-source discovery of chemical leads for next-generation chemoprotective antimalarials” (2018).

System: Plasmodium berghei
Assay: Luciferase/luciferin-expressing antifolate-resistant parasites were used to infect a culture of HepG2 cells that were pre-incubated with compounds. Infected hepatocytes emit light due to the luciferase reaction. Assay results are presented as the percent inhibition of light emission compared to control. […]
Type: functional
Settings: sporozoite; for IC90: read-out: LUCIFERASE INFECTION ASSAY - IC90
[1] = read-out: LUCIFERASE INFECTION ASSAY - IC50

Compound	IC90	IC50 [1]	further results
CC(C)C(C)CCC(C)C1CC=C2C3CCC4CC(O)CCC4(C)C3CCC21C (stereo unspecified)	0.344 µM	–	IC50 (HEPG2TOX_HILL_SLOPE 17.3, HEPG2TOX_R_SQUARED 0.943, PBLUC_HILL_SLOPE 11.3, PBLUC_R_SQUARED 0.846, read-out: LUCIFERASE INFECTION ASSAY - IC50): 0.284 µM
CC(=O)c1c(C)cc(C)c(CN2C(=O)CN(c3ccccc3)C2=O)c1C	> 10 µM	> 10 µM	–
O=C(Cc1cn2ccsc2n1)NNC(=O)c1cccnc1Nc1cccc(C(F)(F)F)c1	7.63 µM	–	IC50 (HEPG2TOX_HILL_SLOPE 6.77, HEPG2TOX_R_SQUARED 0.513, PBLUC_HILL_SLOPE 2.49, PBLUC_R_SQUARED 0.696, read-out: LUCIFERASE INFECTION ASSAY - IC50): 3.16 µM
CN(Cc1nc2ccccc2s1)C(=O)c1cccc(C#N)c1	> 10 µM	> 10 µM	–
COc1ccc2c(c1)CC/C(=C\c1ccc(C(C)C)cc1)C2=O	> 10.8 µM	> 10.8 µM	–
CCNC(=O)CNC(=O)c1ccc(C(C)(C)C)cc1	> 10 µM	> 10 µM	–
Cc1nn(C(C)(C)C)c2c1C(c1ccc3c(c1)OCO3)C1C(=O)CC(C)(C)CC1=N2 (stereo unspecified)	> 10 µM	–	IC50 (HEPG2TOX_HILL_SLOPE 2.55, HEPG2TOX_R_SQUARED 0.436, read-out: LUCIFERASE INFECTION ASSAY - IC50): > 10 µM
Cc1cc(C(=O)C(C)OC(=O)C2=COCCO2)c(C)n1-c1ccc(Cl)cc1 (stereo unspecified)	> 10 µM	6.48 µM	–
Cc1c(C(=O)Nc2ccnn2Cc2ccccc2)cnn1C(C)(C)C	> 10 µM	–	IC50 (PBLUC_HILL_SLOPE 2.67, PBLUC_R_SQUARED 0.113, read-out: LUCIFERASE INFECTION ASSAY - IC50): > 10 µM
C/C(=N\NC(=S)NC(C)(C)C)c1cc(F)cc(Cl)c1O	4.66 µM	–	IC50 (FFLUC_HILL_SLOPE 2.86, FFLUC_R_SQUARED 0.466, HEPG2TOX_HILL_SLOPE 2.1, HEPG2TOX_R_SQUARED 0.731, PBLUC_HILL_SLOPE 9.8, PBLUC_R_SQUARED 0.522, read-out: LUCIFERASE INFECTION ASSAY - IC50): 3.72 µM
FC(F)Oc1ccc(NC(=S)NCC23CC4CC(CC(C4)C2)C3)cc1	9.77 µM	–	IC50 (HEPG2TOX_HILL_SLOPE 8.2, HEPG2TOX_R_SQUARED 0.229, PBLUC_HILL_SLOPE 14.4, PBLUC_R_SQUARED 0.791, read-out: LUCIFERASE INFECTION ASSAY - IC50): 8.38 µM
Clc1nc(-c2ccccn2)nc2scc(-c3ccccc3)c12	1.68 µM	–	IC50 (HEPG2TOX_HILL_SLOPE 0.933, HEPG2TOX_R_SQUARED 0.89, PBLUC_HILL_SLOPE 8.14, PBLUC_R_SQUARED 0.197, read-out: LUCIFERASE INFECTION ASSAY - IC50): 1.28 µM
CCN(CC1COc2ccccc2O1)C(=O)c1ccccc1CSc1nc2nc(C)cc(C)n2n1 (stereo unspecified)	> 10 µM	> 10 µM	–
CN1CCN(c2ccc(NC(=O)c3csc4c3CCCC4)cc2)CC1	4.98 µM	–	IC50 (PBLUC_HILL_SLOPE 0.882, PBLUC_R_SQUARED 0.629, read-out: LUCIFERASE INFECTION ASSAY - IC50): 0.413 µM
CC(=O)N(/N=C/c1ccc(C(F)(F)F)cc1)C1=NN(C(C)=O)C(c2ccc(C(F)(F)F)cc2)S1 (stereo unspecified)	> 6.57 µM	> 6.57 µM	–
C=C(C)C/N=c1\scc(-c2ccccc2F)n1/N=C1\CCCCc2ccccc21	> 10 µM	> 10 µM	–
Cc1nn(-c2ccccc2)c2nc(-c3cccs3)cc(C(=O)N3CCc4ccccc43)c12	> 10 µM	–	IC50 (FFLUC_HILL_SLOPE 2.26, FFLUC_R_SQUARED 0.632, PBLUC_HILL_SLOPE 0.862, PBLUC_R_SQUARED 0.727, read-out: LUCIFERASE INFECTION ASSAY - IC50): 4.63 µM
Cc1nnc(S(=O)(=O)CC(=O)N2CCc3ccccc32)n1C	> 10 µM	–	IC50 (FFLUC_HILL_SLOPE 11.6, FFLUC_R_SQUARED 0.688, read-out: LUCIFERASE INFECTION ASSAY - IC50): > 10 µM
Cc1[nH]nc2ccnc(-c3cccc(Cl)c3)c12	> 10 µM	–	IC50 (HEPG2TOX_HILL_SLOPE 7.21, HEPG2TOX_R_SQUARED 0.311, read-out: LUCIFERASE INFECTION ASSAY - IC50): > 10 µM
CNC(=S)Nc1cc(C(F)(F)F)cc(C(F)(F)F)c1	8.33 µM	–	IC50 (PBLUC_HILL_SLOPE 3.27, PBLUC_R_SQUARED 0.572, read-out: LUCIFERASE INFECTION ASSAY - IC50): 4.26 µM
O=C(N/N=C/c1ccc([N+](=O)[O-])o1)c1ccc(CN2C(=O)c3cccc4cccc2c34)cc1	> 10 µM	> 10 µM	–
O=C1C=CC(=O)N1c1ccc(F)c(Cl)c1	> 14.6 µM	–	IC50 (FFLUC_HILL_SLOPE 2.09, FFLUC_R_SQUARED 0.475, HEPG2TOX_HILL_SLOPE 6.94, HEPG2TOX_R_SQUARED 0.217, PBLUC_HILL_SLOPE 8.9, PBLUC_R_SQUARED 0.496, read-out: LUCIFERASE INFECTION ASSAY - IC50): 13.6 µM

Compound	IC90	IC50 [1]	further results
Cc1cccc(-n2c(SC(C)C(N)=O)nc3ccccc3c2=O)n1 (stereo unspecified)	> 10 µM	> 10 µM	–
Cc1ccc2nc(NC(=O)c3cccc(Cl)c3Cl)c(C(=O)NC3CCCC3)n2c1	> 7.65 µM	> 7.65 µM	–
COc1ccc(-c2ccc(-c3nc4c(c(=O)[nH]c(=O)n4CC(C)C)n3CC(C)C)o2)c([N+](=O)[O-])c1	> 10 µM	> 10 µM	–
O=C(NCCN1CCc2ccccc2C1)c1cc2ccccc2cc1O	3.77 µM	–	IC50 (PBLUC_HILL_SLOPE 16.8, PBLUC_R_SQUARED 0.317, read-out: LUCIFERASE INFECTION ASSAY - IC50): 3.31 µM
CCN1C(=O)N(CCN(C)C)C(=O)C12CCN(Cc1ccc3c(c1)c1ccccc1n3CC)CC2	6.84 µM	–	IC50 (PBLUC_HILL_SLOPE 12.4, PBLUC_R_SQUARED 0.445, read-out: LUCIFERASE INFECTION ASSAY - IC50): 5.73 µM
CSc1nc(N2CCNCC2)c2sc3c(c2n1)CCCC3	> 10.3 µM	–	IC50 (PBLUC_HILL_SLOPE 1.21, PBLUC_R_SQUARED 0.0625, read-out: LUCIFERASE INFECTION ASSAY - IC50): > 10.3 µM
COc1cc(OC)cc(-c2cc3c(Nc4ccc(OC)c(OC)c4)nccc3[nH]2)c1	6.83 µM	–	IC50 (HEPG2TOX_HILL_SLOPE 3.11, HEPG2TOX_R_SQUARED 0.652, PBLUC_HILL_SLOPE 1.69, PBLUC_R_SQUARED 0.756, read-out: LUCIFERASE INFECTION ASSAY - IC50): 1.86 µM
c1csc(-c2nnc(Sc3ncnc4sccc34)[nH]2)c1	> 10 µM	> 10 µM	–
Cc1ccc(-n2nnnc2SCc2c(F)cccc2Cl)c(C)c1	> 9.46 µM	–	IC50 (HEPG2TOX_HILL_SLOPE 2.61, HEPG2TOX_R_SQUARED 0.917, PBLUC_HILL_SLOPE 6.38, PBLUC_R_SQUARED 0.299, read-out: LUCIFERASE INFECTION ASSAY - IC50): 8.85 µM
CC1CCN(Cc2nc(Oc3cccc4c3OC(C)(C)C4)c3c(-c4ccccc4)csc3n2)CC1	> 10 µM	> 10 µM	–
OCc1cccc(-c2cnc3cnc(-c4ccc(CNc5ccccc5)cc4)cn23)c1	> 8.12 µM	–	IC50 (FFLUC_HILL_SLOPE 0.18, FFLUC_R_SQUARED 0.146, PBLUC_HILL_SLOPE 3.27, PBLUC_R_SQUARED 0.516, read-out: LUCIFERASE INFECTION ASSAY - IC50): 6.25 µM
CC(C)(C)c1cc(NC(=O)CSc2ccc(Cl)cc2)c(C(N)=O)s1	> 8.62 µM	–	IC50 (FFLUC_HILL_SLOPE 13.8, FFLUC_R_SQUARED 0.177, HEPG2TOX_HILL_SLOPE 8.22, HEPG2TOX_R_SQUARED 0.725, read-out: LUCIFERASE INFECTION ASSAY - IC50): > 8.62 µM
CC(CC(=O)Nc1ccc(Cl)cc1)NCC(C)(C)N1CCOCC1 (stereo unspecified)	> 10 µM	–	IC50 (PBLUC_HILL_SLOPE 1.7, PBLUC_R_SQUARED 0.0143, read-out: LUCIFERASE INFECTION ASSAY - IC50): 4.7 µM
Cn1c(Nc2cccc(C(F)(F)F)c2)nc2cnc(-c3ccc(N)nc3)cc21	> 10 µM	–	IC50 (PBLUC_HILL_SLOPE 1.84, PBLUC_R_SQUARED 0.0919, read-out: LUCIFERASE INFECTION ASSAY - IC50): > 10 µM
CC(C)NC(=O)c1c(NC(=O)c2cccc(F)c2)nc2ccccn12	7.41 µM	–	IC50 (HEPG2TOX_HILL_SLOPE 3.53, HEPG2TOX_R_SQUARED 0.8, PBLUC_HILL_SLOPE 29.8, PBLUC_R_SQUARED 0.0967, read-out: LUCIFERASE INFECTION ASSAY - IC50): 6.88 µM
COc1cc(-c2cnc3sc(NCc4cccs4)nn23)ccc1O	> 9.21 µM	> 9.21 µM	–
c1ccc(CCNCc2cn(-c3ccccc3)nc2-c2cccs2)cc1	> 10 µM	–	IC50 (PBLUC_HILL_SLOPE 3.19, PBLUC_R_SQUARED 0.352, read-out: LUCIFERASE INFECTION ASSAY - IC50): 9.18 µM
O=C(/C=C/c1cccs1)N1CCN(S(=O)(=O)c2c(Cl)cc(Br)cc2Cl)CC1	> 10 µM	–	IC50 (PBLUC_HILL_SLOPE 3.28, PBLUC_R_SQUARED 0.115, read-out: LUCIFERASE INFECTION ASSAY - IC50): 5.38 µM
Cc1cc(C(=O)CSc2nc3ccccc3[nH]2)c(C)n1-c1ccc(F)cc1	0.513 µM	–	IC50 (HEPG2TOX_HILL_SLOPE 0.596, HEPG2TOX_R_SQUARED 0.924, PBLUC_HILL_SLOPE 3.63, PBLUC_R_SQUARED 0.908, read-out: LUCIFERASE INFECTION ASSAY - IC50): 0.28 µM
CCOCc1c(C(=O)NC2=C(C(=O)OCC)C(CC)=Nc3ccccc3N2)oc2ccccc12	8.81 µM	–	IC50 (PBLUC_HILL_SLOPE 13.2, PBLUC_R_SQUARED 0.167, read-out: LUCIFERASE INFECTION ASSAY - IC50): 7.46 µM
CC(C)CCNC(=O)C(=Cc1ccc(Oc2ccc(C(C)(C)C)cc2)c([N+](=O)[O-])c1)C(=O)NCCC(C)C	> 10 µM	–	IC50 (FFLUC_HILL_SLOPE 15.8, FFLUC_R_SQUARED 0.198, HEPG2TOX_HILL_SLOPE 15.2, 3.81, HEPG2TOX_R_SQUARED 0.607, 0.996, PBLUC_HILL_SLOPE 2.43, PBLUC_R_SQUARED 0.694, read-out: LUCIFERASE INFECTION ASSAY - IC50): 4.43 µM
